According to patent US20170096629A1, “FILTRATION DEVICE AND SYSTEM” (Universite Technologie de Compiegne - UTC, priority 2009, published 2017):

Experiment: diffusion coefficient of molecules through a filtration membrane, co-current filtration system, regression of analytic model
Format: physicochemical
Settings: least-squares regression of analytic model on concentration ratio versus time
Text: Such systems may also be used for characterizing a filtration membrane 130. For example, it is possible to evaluate a diffusion coefficient of a molecule for a given membrane 130 from a physical model and measurements of concentration of the molecule in the first chamber 110 and/or the second chamber 120 versus time. The co-current system may be used for calibrating the model and estimating the diffiusion coefficient, and the countercurrent system may be used for checking the diffusion coefficient or vice versa.
In particular, the applicant modeled the time-dependent change of the concentration in the first chamber 110, in the case when a fluid to be filtered circulates in the second chamber 120, with the following equations: • in the case of a co-current flow (like in FIG. 9): […]
and • C1(t) represents the concentration in the first chamber 110 as a function of time t, • L represents the (common) length of the first and second chambers 110, 120, • b represents the (common) width of the first and second chambers 110, 120, • Qf represents the filtration flow rate, • V1 represents the volume of the first chamber 110, • V2 represents the volume of the second chamber 120, • C1o represents the initial concentration in the first chamber 110, • C1∞ represents the equilibrium concentration in the first chamber 110, • Dm represents the diffusion coefficient of the molecule to be filtered for the membrane 130, and • δ represents the thickness of the membrane.
By means of these models, it is possible to determine the values of the diffusion coefficient Dm of the molecules tested for a given membrane 130. For this, for example it is possible to operate in the co-current mode and measure the disappearance of the molecule in the second chamber 120 (and therefore its appearance in the first chamber 110).
In FIGS. 11 and 12 the change in the concentration-over-initial-concentration-in-the-second-chamber 120 ratio is illustrated versus time for given experimental conditions, for urea (FIG. 11) and vitamin B12 (FIG. 12) respectively, with several types of membrane. Moreover, the applicant has also determined this ratio for albumin (graph not shown).
The experimental results are illustrated, for an experiment with a membrane of high porosity (of the 8F type) by icons □, Δ, and for an experiment with a membrane of low porosity (of the 1 FPH type) by icons: *, ◯. A regression of the analytic model is then made for example with a minimization by least squares, in which it is possible to obtain experimentally the diffusion coefficients in (m^2/s) listed in the following table: […]

Molecule: NC(N)=O [Urea, urea]
- diffusion coefficient Dm (membrane 1 FPH (low porosity)): 2 × 10^−12 m^2/s
- diffusion coefficient Dm (membrane 8F (high porosity)): 2 × 10^−11 m^2/s

Molecule: albumin
- diffusion coefficient Dm (membrane 1 FPH (low porosity)): 9 × 10^−14 m^2/s
- diffusion coefficient Dm (membrane 8F (high porosity)): 2 × 10^−13 m^2/s

Molecule: vitamin B12
- diffusion coefficient Dm (membrane 1 FPH (low porosity)): 4 × 10^−13 m^2/s
- diffusion coefficient Dm (membrane 8F (high porosity)): 6 × 10^−12 m^2/s
